Test [1] addresses T1, P2X7 (Homo sapiens (Human), UniProt Q99572). Put plainly: Radioligand binding, human P2X7-1321N1 cell membranes, tracer tritiated A-804598. The settings on record: Table 3 (additional runs). As to the method:
P2X7 Antagonism in Recombinant Human P2X7 Cells or Recombinant Rat P2X7 Cells: (a) Ca^2+ Flux and (b) Radioligand Binding
(b) Radioligand Binding: human or rat P2X7-1321N1 cells were collected and frozen @−80° C. On the day of the experiment, cell membrane preparations were made according to standard published methods. The total assay volume was 100 μl:10 μl compound (10×)+(b) 40 μl tracer (2.5×)+50 μl membrane (2×). The tracer used for the assay was tritiated A-804598. The compound can be prepared as described in the literature. (Donnelly-Roberts, D. Neuropharmacology 2008, 56 (1), 223-229.) Compounds, tracer and membranes were incubated for 1 hour @ 4° C. The assay was terminated by filtration (GF/B filters pre-soaked with 0.3% PEI) and washed with washing buffer (Tris-HCl 50 mM). The IC50 generated in the binding assay was corrected for tracer concentration and affinity of the tracer to derive at the affinity (K) of the test compounds. […] Data are analyzed and graphed on Graphpad Prism 5. For analysis, each concentration point is averaged from triplicate values and the averaged values are plotted on Graphpad Prism.

In test [2] the target is T1, P2X7. Put plainly: P2X7 antagonism in human peripheral blood mononuclear cells (PBMCs), IL-1β release. The test is classed as cell-based. The settings on record: Table 3 (additional runs); for remaining activity at 10 µM: P2X7, 10 μM compound, read-out: PBMC 10 μM (% control). In short, it runs like this:
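Ficoll-isolated human PBMCs primed with LPS (30 ng/ml) for 1 h, treated with compound for 30 min, then stimulated with 0.5 mM Bz-ATP for 1.5 h. Supernatant IL-1β measured by ELISA as % of LPS+Bz-ATP minus LPS-only release; IC50 from concentration–response of triplicate means.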

T1 sequence (Q99572 whole entry): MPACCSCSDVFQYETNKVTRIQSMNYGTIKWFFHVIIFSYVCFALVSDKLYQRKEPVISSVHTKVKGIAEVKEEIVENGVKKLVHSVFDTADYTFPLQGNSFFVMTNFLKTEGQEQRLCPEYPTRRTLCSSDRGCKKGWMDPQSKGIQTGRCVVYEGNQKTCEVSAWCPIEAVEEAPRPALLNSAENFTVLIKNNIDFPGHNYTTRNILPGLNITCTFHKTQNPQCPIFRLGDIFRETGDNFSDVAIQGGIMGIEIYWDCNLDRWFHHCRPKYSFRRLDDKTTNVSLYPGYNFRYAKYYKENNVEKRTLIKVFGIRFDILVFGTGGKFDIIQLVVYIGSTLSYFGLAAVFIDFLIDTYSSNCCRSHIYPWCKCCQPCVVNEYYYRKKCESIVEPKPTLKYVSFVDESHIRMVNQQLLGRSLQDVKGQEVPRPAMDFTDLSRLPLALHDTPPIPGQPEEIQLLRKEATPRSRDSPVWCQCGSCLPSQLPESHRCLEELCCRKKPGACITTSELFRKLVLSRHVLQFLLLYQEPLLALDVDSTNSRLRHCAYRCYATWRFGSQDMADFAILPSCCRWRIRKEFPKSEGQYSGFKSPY

Consider `C[C@H]1Cn2c(-c3ccc(F)cn3)nnc2-c2nnc(-c3ccc(Cl)cc3Cl)n21` [Example 127, (S)-3-(2,4-dichlorophenyl)-8-(5-fluoropyridin-2-yl)-5-methyl-5,6-dihydrobis([1,2,4]triazolo)[4,3-a:3′,4′-c]pyrazine], for which the Ki at P2X7 [1] was 10 nM. Also, at P2X7 [2], the remaining activity at 10 µM turned out to be 0.1%.
As to `Cc1c(-c2nnc3n2[C@@H](C)Cn2c(-c4ccc(F)cn4)nnc2-3)cccc1C(F)(F)F` [Example 128, (S)-8-(5-fluoropyridin-2-yl)-5-methyl-3-(2-methyl-3-(trifluoromethyl)phenyl)-5,6-dihydrobis([1,2,4]triazolo)[4,3-a:3′,4′-c]pyrazine], the affinity on P2X7 [1], expressed as Ki, was 6.3 nM. The remaining activity at 10 µM at P2X7 [2] was found to be 3.8%.
The like results for `COc1ccnc(-c2nnc3n2C[C@H](C)n2c(-c4cccc(Cl)c4Cl)nnc2-3)c1` [Example 129, (S)-3-(2,3-dichlorophenyl)-8-(4-methoxypyridin-2-yl)-5-methyl-5,6-dihydrobis([1,2,4]triazolo)[4,3-a:3′,4′-c]pyrazine] were, in that order, 10 nM and -0.2%.
Taken in the same sequence, the figures for `COc1ccnc(-c2nnc3n2C[C@H](C)n2c(-c4ccc(Cl)cc4Cl)nnc2-3)c1` [Example 130, (S)-3-(2,4-dichlorophenyl)-8-(4-methoxypyridin-2-yl)-5-methyl-5,6-dihydrobis([1,2,4]triazolo)[4,3-a:3′,4′-c]pyrazine] were 6.3 nM and -0.7%.
Taken in the same sequence, the figures for `COc1ccnc(-c2nnc3n2C[C@H](C)n2c(-c4cccc(C(F)(F)F)c4C)nnc2-3)c1` [Example 131, (S)-8-(4-methoxypyridin-2-yl)-5-methyl-3-(2-methyl-3-(trifluoromethyl)phenyl)-5,6-dihydrobis([1,2,4]triazolo)[4,3-a:3′,4′-c]pyrazine] were 5 nM and 0.7%.
For `FC(F)(F)c1cccc(-c2nnc3n2CCn2c(-c4cnccn4)nnc2-3)c1Cl` [Example 132, 3-[2-Chloro-3-(trifluoromethyl)phenyl]-8-pyrazin-2-yl-5,6-dihydrobis[1,2,4]triazolo[4,3-a:3′,4′-c]pyrazine], affinity at P2X7 [1] was put at a Ki of 28.2 nM. Moreover, the “PBMC 1 μM (% control)” value at P2X7 [2] (1 μM compound) was 50.7 % control.

In general, Ki refers to a dissociation constant, usually derived from enzyme kinetics or from competition with a known ligand. High values mean lower affinity, low ones higher affinity.
